Measured values as given in the NIST ThermoML archive (doi:10.1016/j.jct.2015.02.020).
Numbers after ± are expanded uncertainties.

Key:
[1] = xn = mol fraction of the nth substance listed; conditions: 101.3 kPa, Liquid; for viscosity: Falling or rolling sphere viscometry; for speed of sound: Sing-around technique in a fixed-path interferometer; for mass density: Vibrating tube method
[2] = refractive index (Na D-line) (dimensionless); xn = mol fraction of the nth substance listed; conditions: 101.3 kPa, Liquid, Standard Abbe refractometry

CC[n+]1cccc(C)c1.O=S(=O)([N-]S(=O)(=O)C(F)(F)F)C(F)(F)F + O
Conditions | mass density, [1] [kg/m3] | refractive index, [2] | speed of sound, [1] [m/s] | viscosity, [1] [mPa·s]
298.15 K, x2 = 0.131 | 1481.91 ± 0.77 | 1.44197 ± 0.00037 | 1262.7 ± 1.5 | 29.75 ± 0.83
298.15 K, x2 = 0.189 | 1479.39 ± 0.89 | 1.44144 ± 0.00039 | 1264.6 ± 1.5 | 27.2 ± 0.79
298.15 K, x2 = 0.266 | 1473.92 ± 0.98 | 1.44013 ± 0.0004 | 1268.3 ± 1.5 | 23.89 ± 0.73
303.15 K, x2 = 0.131 | 1477.02 ± 0.77 | 1.44057 ± 0.00037 | 1251.8 ± 1.5 | 24.96 ± 0.73
303.15 K, x2 = 0.189 | 1474.49 ± 0.9 | 1.44005 ± 0.00038 | 1253.4 ± 1.5 | 22.92 ± 0.67
303.15 K, x2 = 0.266 | 1468.97 ± 0.98 | 1.43917 ± 0.00038 | 1257.1 ± 1.5 | 20.03 ± 0.59
308.15 K, x2 = 0.131 | 1472.16 ± 0.77 | 1.4391 ± 0.00038 | 1240.8 ± 1.5 | 21.21 ± 0.61
308.15 K, x2 = 0.189 | 1469.6 ± 0.9 | 1.43852 ± 0.00038 | 1242.3 ± 1.5 | 19.52 ± 0.56
308.15 K, x2 = 0.266 | 1464.04 ± 0.99 | 1.43769 ± 0.00037 | 1246 ± 1.5 | 17.09 ± 0.51
313.15 K, x2 = 0.131 | 1467.31 ± 0.77 | 1.43766 ± 0.00037 | 1229.9 ± 1.5 | 18.24 ± 0.51
313.15 K, x2 = 0.189 | 1464.73 ± 0.9 | 1.43716 ± 0.00038 | 1231.4 ± 1.5 | 16.84 ± 0.49
313.15 K, x2 = 0.266 | 1459.12 ± 0.99 | 1.43624 ± 0.00037 | 1234.9 ± 1.5 | 14.62 ± 0.45
318.15 K, x2 = 0.131 | 1462.48 ± 0.77 | 1.43623 ± 0.00037 | 1219.1 ± 1.5 | 15.79 ± 0.44
318.15 K, x2 = 0.189 | 1459.88 ± 0.91 | 1.43573 ± 0.00036 | 1220.5 ± 1.5 | 14.61 ± 0.42
318.15 K, x2 = 0.266 | 1454.22 ± 1 | 1.43533 ± 0.00036 | 1224 ± 1.5 | 12.74 ± 0.39
323.15 K, x2 = 0.131 | 1457.66 ± 0.77 | 1.4348 ± 0.00038 | 1208.4 ± 1.5 | 13.84 ± 0.38
323.15 K, x2 = 0.189 | 1455.04 ± 0.91 | 1.43425 ± 0.00036 | 1209.5 ± 1.5 | 12.88 ± 0.37
323.15 K, x2 = 0.266 | 1449.34 ± 1 | 1.43385 ± 0.00035 | 1213.2 ± 1.5 | 11.23 ± 0.34
328.15 K, x2 = 0.131 | 1452.87 ± 0.77 | 1.43338 ± 0.00038 | 1197.8 ± 1.5 | 12.27 ± 0.33
328.15 K, x2 = 0.189 | 1450.22 ± 0.91 | 1.43281 ± 0.00036 | 1199.2 ± 1.5 | 11.44 ± 0.32
328.15 K, x2 = 0.266 | 1444.47 ± 1 | 1.43261 ± 0.00035 | 1202.4 ± 1.5 | 9.965 ± 0.31
333.15 K, x2 = 0.131 | 1448.09 ± 0.77 | 1.43195 ± 0.00037 | 1187.3 ± 1.5 | 10.95 ± 0.29
333.15 K, x2 = 0.189 | 1445.42 ± 0.92 | 1.43142 ± 0.00036 | 1188.6 ± 1.5 | 10.21 ± 0.29
333.15 K, x2 = 0.266 | 1439.61 ± 1 | 1.43119 ± 0.00035 | 1191.8 ± 1.5 | 8.892 ± 0.28
338.15 K, x2 = 0.131 | 1443.32 ± 0.77 | 1.43052 ± 0.00038 | 1176.9 ± 1.5 | 9.815 ± 0.26
338.15 K, x2 = 0.189 | 1440.63 ± 0.92 | 1.42999 ± 0.00036 | 1178.2 ± 1.5 | 9.153 ± 0.26
338.15 K, x2 = 0.266 | 1434.78 ± 1 | 1.42974 ± 0.00035 | 1181.2 ± 1.5 | 7.977 ± 0.25
343.15 K, x2 = 0.131 | 1438.57 ± 0.77 | 1.42911 ± 0.00038 | 1166.6 ± 1.5 | 8.833 ± 0.23
343.15 K, x2 = 0.189 | 1435.85 ± 0.92 | 1.42853 ± 0.00036 | 1167.8 ± 1.5 | 8.239 ± 0.23
343.15 K, x2 = 0.266 | 1429.95 ± 1 | 1.42835 ± 0.00035 | 1170.8 ± 1.5 | 7.182 ± 0.23

CC[n+]1ccccc1C.O=S(=O)([N-]S(=O)(=O)C(F)(F)F)C(F)(F)F + O
Conditions | mass density, [1] [kg/m3] | refractive index, [2] | speed of sound, [1] [m/s] | viscosity, [1] [mPa·s]
298.15 K, x2 = 0.124 | 1498.88 ± 0.85 | 1.44635 ± 0.00039 | 1301.6 ± 1.5 | 54.52 ± 1.8
298.15 K, x2 = 0.172 | 1496.43 ± 0.92 | 1.44579 ± 0.00038 | 1302.6 ± 1.5 | 48.93 ± 1.6
298.15 K, x2 = 0.256 | 1490.94 ± 0.93 | 1.44479 ± 0.00038 | 1304.6 ± 1.4 | 40.5 ± 1.5
303.15 K, x2 = 0.124 | 1493.99 ± 0.85 | 1.44489 ± 0.00038 | 1290.2 ± 1.5 | 44.3 ± 1.6
303.15 K, x2 = 0.172 | 1491.53 ± 0.92 | 1.44442 ± 0.00039 | 1291.2 ± 1.5 | 39.95 ± 1.4
303.15 K, x2 = 0.256 | 1485.99 ± 0.93 | 1.44323 ± 0.00039 | 1293.2 ± 1.4 | 32.89 ± 1.1
308.15 K, x2 = 0.124 | 1489.12 ± 0.85 | 1.44343 ± 0.00038 | 1279 ± 1.5 | 36.58 ± 1.3
308.15 K, x2 = 0.172 | 1486.64 ± 0.92 | 1.44289 ± 0.00039 | 1279.9 ± 1.5 | 33.11 ± 1.1
308.15 K, x2 = 0.256 | 1481.06 ± 0.94 | 1.44178 ± 0.00038 | 1282.2 ± 1.4 | 27.38 ± 0.96
313.15 K, x2 = 0.124 | 1484.26 ± 0.85 | 1.44195 ± 0.00039 | 1267.9 ± 1.5 | 30.63 ± 1
313.15 K, x2 = 0.172 | 1481.77 ± 0.93 | 1.44136 ± 0.00038 | 1268.8 ± 1.5 | 27.84 ± 0.91
313.15 K, x2 = 0.256 | 1476.14 ± 0.94 | 1.44044 ± 0.00037 | 1271 ± 1.4 | 23.19 ± 0.8
318.15 K, x2 = 0.124 | 1479.43 ± 0.85 | 1.4405 ± 0.00039 | 1256.9 ± 1.5 | 25.97 ± 0.86
318.15 K, x2 = 0.172 | 1476.91 ± 0.93 | 1.43988 ± 0.00038 | 1257.8 ± 1.5 | 23.68 ± 0.76
318.15 K, x2 = 0.256 | 1471.25 ± 0.94 | 1.43914 ± 0.00036 | 1259.9 ± 1.4 | 19.85 ± 0.67
323.15 K, x2 = 0.124 | 1474.61 ± 0.85 | 1.43906 ± 0.00039 | 1246 ± 1.5 | 22.27 ± 0.72
323.15 K, x2 = 0.172 | 1472.08 ± 0.93 | 1.43853 ± 0.00037 | 1246.8 ± 1.5 | 20.38 ± 0.64
323.15 K, x2 = 0.256 | 1466.37 ± 0.95 | 1.43787 ± 0.00036 | 1248.8 ± 1.4 | 17.19 ± 0.57
328.15 K, x2 = 0.124 | 1469.81 ± 0.85 | 1.43777 ± 0.00038 | 1235.3 ± 1.5 | 19.27 ± 0.6
328.15 K, x2 = 0.172 | 1467.26 ± 0.93 | 1.4372 ± 0.00037 | 1236 ± 1.5 | 17.72 ± 0.55
328.15 K, x2 = 0.256 | 1461.5 ± 0.95 | 1.43662 ± 0.00036 | 1237.9 ± 1.4 | 14.95 ± 0.49
333.15 K, x2 = 0.124 | 1465.03 ± 0.85 | 1.43633 ± 0.00038 | 1224.6 ± 1.5 | 16.83 ± 0.53
333.15 K, x2 = 0.172 | 1462.46 ± 0.94 | 1.43586 ± 0.00037 | 1225.3 ± 1.5 | 15.44 ± 0.47
333.15 K, x2 = 0.256 | 1456.65 ± 0.96 | 1.43532 ± 0.00036 | 1227.1 ± 1.4 | 13.17 ± 0.42
338.15 K, x2 = 0.124 | 1460.28 ± 0.85 | 1.43494 ± 0.00038 | 1214 ± 1.5 | 14.77 ± 0.45
338.15 K, x2 = 0.172 | 1457.68 ± 0.94 | 1.43447 ± 0.00036 | 1214.6 ± 1.5 | 13.67 ± 0.41
338.15 K, x2 = 0.256 | 1451.82 ± 0.96 | 1.43398 ± 0.00035 | 1216.3 ± 1.4 | 11.71 ± 0.37
343.15 K, x2 = 0.124 | 1455.53 ± 0.85 | 1.43355 ± 0.00037 | 1203.5 ± 1.5 | 13.13 ± 0.37
343.15 K, x2 = 0.172 | 1452.91 ± 0.94 | 1.43315 ± 0.00036 | 1204.1 ± 1.5 | 12.18 ± 0.36
343.15 K, x2 = 0.256 | 1447.01 ± 0.96 | 1.43279 ± 0.00035 | 1205.6 ± 1.4 | 10.47 ± 0.33
